Literature values, collected in patent US8846607B2, “Particles for treatment of pulmonary infection” (President and Fellows of Harvard College, priority 2004, dated 2014).

Tested on: non-replicating TB
Details: after one month, non-replicating TB in vitro

Substance: capreomycin
- log decrease in colony forming units (CFU): one to two
